# Reference: patent US20110039763A1, “TARGETED ANTIMICROBIAL MOIETIES” (C3 JIAN, INC., priority 2009, published 2011)
# Legend:
# microorganisms [1] = assay: Peptide activities: targeting/binding, antimicrobial, growth or phenotype altering (Tables 7, 8); format: cell-based; details: peptides having multiple activities
# From the text: In certain embodiments, peptides described herein can have multiple activities. Thus for example, a peptide can have both binding/targeting activity and antimicrobial activity. Such peptides can be used, e.g., in a chimeric construct, for any or all of these properties. Thus, for example, a peptide designated “B” in Table 8 can be used as a targeting peptide. If it is also designated G or M it can also be used for antimicrobial activity.
# Table 8. Peptides Having Multiple Activities. B: Targeting/Binding Activity; M: Antimicrobial Activity; G: GROWTH or Phenotype Altering.
# microorganisms [2] = assay: Morphology, biofilm and growth disrupting peptides (Table 5); format: cell-based; set-up: key: A: Peptide aggregates; B: Less hyphal formation; Clumps; Diffuse clumps and small polyps; F: Diffuse growth; H: Thin; I: Growth inhibition; Microcolony formation; Rippled; Small polyps; Thick; W: Halo formation on top, microlonies on bottom
# From the text: In certain embodiments peptides that induce alterations in phenotype or other biological activities can also be used as antimicrobial effector moieties.
Substance,Activities (microorganisms [1]),"Organism, effect (microorganisms [2]; E. coli)","Organism, effect (microorganisms [2]; M. luteus)","Organism, effect (microorganisms [2]; MRSA)","Organism, effect (microorganisms [2]; S. epidermidis)","Organism, effect (microorganisms [2]; S. mutans)","Organism, effect (microorganisms [2]; S. pneumoniae)","Organism, effect: C. jeikeium (microorganisms [2])","Organism, effect: MRSA (microorganisms [2]; MRSA)","Organism, effect: S. epidermidis (microorganisms [2]; S. epidermidis)",further results
PF-543: peptide having multiple activities (NILFGIIGFVVAMTAAVIVTAISIAK; Peptide with targeting and/or antimicrobial activity),G B,E. coli (C),M. luteus (C),MRSA (D),S. epidermidis (D),S. mutans (S),S. pneumoniae (D),–,–,–,–
PF-581: peptide having multiple activities (WTARARR; Peptide with targeting and/or antimicrobial activity),G B,–,–,MRSA (A),–,–,S. pneumoniae (A),–,–,–,"Organism, effect (microorganisms [2]; C. jejuni): C. jejuni (A); Organism, effect (microorganisms [2]; E. faecalis): E. faecalis (A)"
PF-578: peptide having multiple activities (QKANLRIGFTYTSDSNVCNLTFALLGSK; Peptide with targeting and/or antimicrobial activity),G B,E. coli (C),M. luteus (C),MRSA (C),S. epidermidis (D),S. mutans (D),S. pneumoniae (D),–,–,–,"Organism, effect (microorganisms [2]; P. mirabilis): P. mirabilis (C)"
PF-479: peptide having multiple activities (AYILKRREEKNK; Peptide with targeting and/or antimicrobial activity),G B,–,–,–,–,–,S. pneumoniae (C),–,–,–,–
PF-057: peptide having multiple activities (TMIVISIPRFEEYMKARHKKWM; Peptide with targeting and/or antimicrobial activity),G B,–,–,–,–,–,–,C. jeikeium (A),MRSA (M),S. epidermidis (D),"Organism, effect: C. albicans (microorganisms [2]; C. albicans): C. albicans (A); Organism, effect: C. jejuni (microorganisms [2]; C. jejuni): C. jejuni (D); Organism, effect: E. coli (microorganisms [2]; E. coli): E. coli (M); Organism, effect: E. faecalis (microorganisms [2]; E. faecalis): E. faecalis (A); Organism, effect: M. luteus (microorganisms [2]; M. luteus): M. luteus (C); Organism, effect: S. pneumoniae (microorganisms [2]; S. pneumoniae): S. pneumoniae (R)"
PF-354: peptide having multiple activities (FTFSKCRASNGRGFGTLWL; Peptide with targeting and/or antimicrobial activity),G B,–,–,–,–,–,–,–,MRSA (H),–,–
PF-022: peptide having multiple activities (MINELKNKNSGIMNNYVVTKESKL; Peptide with targeting and/or antimicrobial activity),G B,–,–,–,–,–,–,C. jeikeium (A),MRSA (R),S. epidermidis (D),"Organism, effect: M. luteus (microorganisms [2]; M. luteus): M. luteus (A)"
PF-634: peptide having multiple activities (chain 1 MPKARPVNHNKKKSKITIKSNFTLFYMFNP; chain 2 MPKARPVNHNKKKSKITIKSNFTLFYMFNP; Peptide with targeting and/or antimicrobial activity),G B,E. coli (C),M. luteus (C),MRSA (D),S. epidermidis (D),S. mutans (D),S. pneumoniae (D),–,–,–,"Organism, effect (microorganisms [2]; P. mirabilis): P. mirabilis (C)"
PF-157: peptide having multiple activities (HTAVVWLAGVSGCVALSHCEPA; Peptide with targeting and/or antimicrobial activity),G B,–,–,–,–,–,–,–,–,S. epidermidis (M),–
PF-196: peptide having multiple activities (TTARYIRRQCHTSITPLSQG; Peptide with targeting and/or antimicrobial activity),G B,–,–,–,–,–,–,C. jeikeium (R),–,S. epidermidis (C),–
